# Test results as given in patent publication US8957056B2, “Migrastatin analogs in the treatment of cancer” (Sloan-Kettering Instiute for Cancer Research, priority 2004, dated 2015).
# Read-outs that look alike come from different tables or passages of the source.
# Key:
# [1] = tested on: mouse 4T1 cell; conditions: mouse 4T1 cell proliferation; previously reported (WO 2004/087672); cited from earlier work
# [2] = Mouse blood plasma stability; conditions: test period one hour
# Experimental: The biological evaluation of the compounds (in terms of their ability to inhibit cell migration) was accomplished in a Boyden chamber cell migration assay. In this assay, mouse breast tumor cells (4T1 cells) or endothelial cells (HUVECs) are seeded on the upper chamber of a transwell insert. Growth factor-containing serum is added to the lower chamber.
# In anticipation of subsequent in vivo evaluation of these compounds and others, preliminary metabolic stability studies were carried out. […] As a test of the ‘deactivation hypothesis’, the hydrolysis product of macrolactone 48 was prepared (Scheme 27) and tested for its activity against tumor cell migration.
# [3] = tested on: HUVEC; test: Tube formation assay; assay type: cell-based, human; conditions: HUVEC on matrigel, 16-18 h, tested concentrations 200, 100, 50, 25, 10 μM
# Experimental: A protocol was designed based on the instructions from the provider (BD Bioscience, San Jose, Calif.). Briefly, wells of a 48 well culture dish were covert with 150 μL matrigel and the matrigel was gelatinized for 30 min at 37° C. A 80-90% confluent HUVEC (BD Bioscience, San Jose, Calif.) culture was trypsin treated, the detached cells were collected by centrifugation and resuspended in EGM-2 media (BD Bioscience, San Jose, Calif.). Cell concentration was adjusted to 100.000 cells/mL. 400 μL of the cell suspension were filled in the matrigel coated wells, and a solution of the inhibitor was added to the intended final concentration. The plates were incubated at 37° C. with 5% CO2 for 16-18 h. Media was removed, and the matrigel surface was washed twice with 500 μL PBS before cells were labeled with 250 μL 8 μM Calcein AM (Pierce, Rockford, Ill.) in PBS for 30 min at 37° C. After two additional washing steps (500 μL PBS) cells were visualized under an inverted microscope. Fluorescence was excited at 488 nm and recorded at 538 nm. The minimum effect concentration was defined as the minimal inhibitor concentration that caused a definite disturbance of the complexity of the formed tube network.
# [4] = tested on: mouse breast tumor cells (4T1 cells); test: Boyden chamber cell migration assay, 4T1; assay type: cell-based; conditions: Mus musculus, 4T1, read-out: IC50 value, chamber cell migration assay
# [5] = reported by Imoto / Kosan; read-out: IC50 value, reported activity in a wound healing assay; cited from earlier work
# [6] = tested on: six solid human tumor cell lines and four liquid cancer cell lines; test: Chamber cell migration, various human cancer cells (overall statements); assay type: cell-based; conditions: migration inhibition
# Experimental: Additional evaluation was conducted in a variety of human cancer cells and xenographs (See FIGS. 4-19). […] Unexpectedly, a very high selectivity between the various tumor cell lines was detected (Table 4 and FIG. 2). […] As stated above, non-transformed human cells such as HUVEC appear to be largely more resistant to the compounds. […] This was an unforeseen discovery, especially in light of the response observed for these compounds to the 4T1 mouse breast cancer cell line (previously reported in WO 2004/087672).
# Cell migrations were assayed with 8 μm of microporous 6.5-mm transwell plates (Corning). 200 μl of 2×10^5 cells in serum-free RPMI1640 medium containing 0.5% BSA were added to the upper chamber and 600 μl of medium with 10% fetal bovine serum was added to the lower chamber. […] Cells migrated to the lower wells were collected and counted for liquid tumors, solid tumors were processed as previously described.^28 Data shown are representative of at least three experiments.
# [7] = tested on: adherent cells (e.g. KYSE-520 cells); test: Wound healing (scratch) assay, preliminary (Table 2); assay type: cell-based; conditions: 28 to 30 h, tested concentrations 200, 100, 50, 25, 10 μM
# Experimental: The wound healing assay was performed based on the method described by Nakae et al. (Nakae et al., J. Antibiotics (2000), 53, 1130-1136). Briefly, adherent cells were grown in a suitable media to confluence (e.g. KYSE-520 cells in RPMI-1640 with 10% FBS). Cells were starved for 24 h in serum free media A scratch (ca. 0.5 mm) was applied and the cell layer was washed twice with PBS after removal of the media. Fresh, serum free media with the test compound at the desired concentration was added and the cells were incubated for 28 to 30 h at 37° C., 5% CO2. The scratch size was compared to that observed for cells exposed to 100 μM Migrastatin. Test compounds associated with a scratch size equal to or larger than that observed for cells exposed to 100 μM Migrastatin were deemed to have cell migration inhibitory activity at least equal to Migrastatin.
# [8] = Chamber cell migration assay, preliminary (Table 3); assay type: cell-based; conditions: 36 h, tested concentrations 200, 100, 50, 25, 10 μM
# Experimental: Cells were grown in an appropriate media to 70 to 80% confluence and incubated in serum and growth factor free media for 24 h. Cells were detached by trypsin treatment, collected by centrifugation and resuspended in serum free media to a final concentration of 150,000 cells/mL. 400 μL of the cell suspension were loaded into a fibronectin coated insert for 24 well multidishes. 750 μL fully supplemented media were applied to the compartment under the insert. To both chambers the inhibitor was added at the intended concentration and the plates were incubated for 36 h at 37° C., 5% CO2. […] The resulting CyQuant assay solution was transferred to the cavities of a 96 well microtiter plate and the fluorescence signal was recorded in an appropriate reader. The CyQuant dye forms a highly fluorescent complex with DNA, thus the fluorescence signal is proportional to the number of cells that migrated through the membrane in the presence of the test compound (N^inh) A positive control (i.e., without a test compound in the growth media) was carried out according to the procedure described above, except that no test compound was added. The positive control fluorescent reading correlates with the number of cells that migrate through the membrane in the absence of inhibitor (N^+). […] The anti-migratory effect of a test compound is determined by the ratio (N^inh−N^−)/(N^+−N^−).
smiles,measurement,setting,value
"CO[C@H]1/C=C/CC/C=C/C(=O)OC([C@H](C)C(=O)CCCC2CC(=O)NC(=O)C2)/C(C)=C\[C@@H](C)[C@@H]1O (some centres unmarked) [Migrastatin (1), Migrastatin]",IC50,[1],42 µM
same,metabolic stability in mouse blood plasma,[2],completely inert toward lactone opening
same,Minimum effect concentration,[3],100 µM
same,IC50,[4],29 µM
same,IC50,[5],29 µM
same,response of the human tumor cell lines tested,[6],did not respond well to any of the cell lines tested
same,Minimum effect concentration,[7],100 µM
same,IC50,[8],200 µM
